Measured values from the supplement of paper PMC10307832.

Tests used:
Assay in all cases: relative viability (nuclei count vs DMSO), 5 days (fraction); higher = more cells survive
EMC-BAC-2 = tested on: EMC-BAC-2
In short: (§1)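 Lung cancer cell lines were seeded in 1536-well plates and dosed by pin tool the next day, with either a single drug or a fixed anchor-drug dose combined with five library-drug doses (not always all listed) spaced in √10 steps. Five days later, one step fixed the cells and stained their nuclei (final 0.05% Triton X-100, 1% formaldehyde, 1 ug/ml Hoechst), and nuclei were counted on 4× images. Relative viability is the nuclei count in treated wells divided by the count in vehicle wells, and each value is the median of duplicate plates.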

HCC-366 = tested on: HCC-366
In short: as §1

NCI-H2170 = tested on: NCI-H2170
In short: as §1

PC-3 [JPC-3] = tested on: PC-3 [JPC-3]
In short: as §1

SK-MES-1 = tested on: SK-MES-1
In short: as §1

NCI-H23 = tested on: NCI-H23
In short: as §1

COR-L 105 = tested on: COR-L 105
In short: as §1

NCI-H596 = tested on: NCI-H596
In short: as §1

H3255 = tested on: H3255
In short: as §1

NCI-H1975 = tested on: NCI-H1975
In short: as §1

A-427 = tested on: A-427
In short: as §1

EKVX = tested on: EKVX
In short: as §1

NCI-H520 = tested on: NCI-H520
In short: as §1

NCI-H1563 = tested on: NCI-H1563
In short: as §1

LOU-NH91 = tested on: LOU-NH91
In short: as §1

NCI-H1666 = tested on: NCI-H1666
In short: as §1

NCI-H441 = tested on: NCI-H441
In short: as §1

NCI-H1755 = tested on: NCI-H1755
In short: as §1

NCI-H1734 = tested on: NCI-H1734
In short: as §1

ChaGo-K-1 = tested on: ChaGo-K-1
In short: as §1

LK-2 = tested on: LK-2
In short: as §1

SMILES: Cc1sc2c(c1C)C(c1ccc(Cl)cc1)=N[C@@H](CC(=O)OC(C)(C)C)c1nnc(C)n1-2 [JQ1] + CS(=O)(=O)N1CCN(Cc2cc3nc(-c4cccc5[nH]ncc45)nc(N4CCOCC4)c3s2)CC1 [Pictilisib] (partner 1 µM)
- relative viability (EMC-BAC-2; first compound 0.04 µM): 0.551
- relative viability (EMC-BAC-2; first compound 0.1265 µM): 0.499
- relative viability (EMC-BAC-2; first compound 0.4 µM): 0.565
- relative viability (EMC-BAC-2; first compound 1.265 µM): 0.27
- relative viability (EMC-BAC-2; first compound 4 µM): 0.26
- relative viability (HCC-366; first compound 0.04 µM): 0.136
- relative viability (HCC-366; first compound 0.1265 µM): 0.156
- relative viability (HCC-366; first compound 0.4 µM): 0.131
- relative viability (HCC-366; first compound 1.265 µM): 0.153
- relative viability (HCC-366; first compound 4 µM): 0.196
- relative viability (NCI-H2170; first compound 0.04 µM): 0.293
- relative viability (NCI-H2170; first compound 0.1265 µM): 0.292
- relative viability (NCI-H2170; first compound 0.4 µM): 0.261
- relative viability (NCI-H2170; first compound 1.265 µM): 0.188
- relative viability (NCI-H2170; first compound 4 µM): 0.152
- relative viability (PC-3 [JPC-3]; first compound 0.04 µM): 0.69
- relative viability (PC-3 [JPC-3]; first compound 0.1265 µM): 0.727
- relative viability (PC-3 [JPC-3]; first compound 0.4 µM): 0.443
- relative viability (PC-3 [JPC-3]; first compound 1.265 µM): 0.501
- relative viability (PC-3 [JPC-3]; first compound 4 µM): 0.382
- relative viability (SK-MES-1; first compound 0.04 µM): 0.351
- relative viability (SK-MES-1; first compound 0.1265 µM): 0.299
- relative viability (SK-MES-1; first compound 0.4 µM): 0.298
- relative viability (SK-MES-1; first compound 1.265 µM): 0.179
- relative viability (SK-MES-1; first compound 4 µM): 0.202
- relative viability (NCI-H23; first compound 0.04 µM): 0.46
- relative viability (NCI-H23; first compound 0.1265 µM): 0.453
- relative viability (NCI-H23; first compound 0.4 µM): 0.447
- relative viability (NCI-H23; first compound 1.265 µM): 0.162
- relative viability (NCI-H23; first compound 4 µM): 0.183
- relative viability (COR-L 105; first compound 0.04 µM): 0.374
- relative viability (COR-L 105; first compound 0.1265 µM): 0.264
- relative viability (COR-L 105; first compound 0.4 µM): 0.312
- relative viability (COR-L 105; first compound 1.265 µM): 0.304
- relative viability (COR-L 105; first compound 4 µM): 0.327
- relative viability (NCI-H596; first compound 0.04 µM): 0.412
- relative viability (NCI-H596; first compound 0.1265 µM): 0.395
- relative viability (NCI-H596; first compound 0.4 µM): 0.477
- relative viability (NCI-H596; first compound 1.265 µM): 0.365
- relative viability (NCI-H596; first compound 4 µM): 0.293
- relative viability (H3255; first compound 0.04 µM): 0.468
- relative viability (H3255; first compound 0.1265 µM): 0.464
- relative viability (H3255; first compound 0.4 µM): 0.552
- relative viability (H3255; first compound 1.265 µM): 0.381
- relative viability (H3255; first compound 4 µM): 0.338
- relative viability (NCI-H1975; first compound 0.04 µM): 0.298
- relative viability (NCI-H1975; first compound 0.1265 µM): 0.246
- relative viability (NCI-H1975; first compound 0.4 µM): 0.27
- relative viability (NCI-H1975; first compound 1.265 µM): 0.214
- relative viability (NCI-H1975; first compound 4 µM): 0.204
- relative viability (A-427; first compound 0.04 µM): 0.81
- relative viability (A-427; first compound 0.1265 µM): 0.748
- relative viability (A-427; first compound 0.4 µM): 0.674
- relative viability (A-427; first compound 1.265 µM): 0.511
- relative viability (A-427; first compound 4 µM): 0.465
- relative viability (EKVX; first compound 0.04 µM): 0.442
- relative viability (EKVX; first compound 0.1265 µM): 0.464
- relative viability (EKVX; first compound 0.4 µM): 0.459
- relative viability (EKVX; first compound 1.265 µM): 0.359
- relative viability (EKVX; first compound 4 µM): 0.335
- relative viability (NCI-H520; first compound 0.04 µM): 0.282
- relative viability (NCI-H520; first compound 0.1265 µM): 0.283
- relative viability (NCI-H520; first compound 0.4 µM): 0.253
- relative viability (NCI-H520; first compound 1.265 µM): 0.174
- relative viability (NCI-H520; first compound 4 µM): 0.214
- relative viability (NCI-H1563; first compound 0.04 µM): 0.606
- relative viability (NCI-H1563; first compound 0.1265 µM): 0.645
- relative viability (NCI-H1563; first compound 0.4 µM): 0.611
- relative viability (NCI-H1563; first compound 1.265 µM): 0.622
- relative viability (NCI-H1563; first compound 4 µM): 0.638
- relative viability (LOU-NH91; first compound 0.04 µM): 0.529
- relative viability (LOU-NH91; first compound 0.1265 µM): 0.545
- relative viability (LOU-NH91; first compound 0.4 µM): 0.463
- relative viability (LOU-NH91; first compound 1.265 µM): 0.419
- relative viability (LOU-NH91; first compound 4 µM): 0.354
- relative viability (NCI-H1666; first compound 0.04 µM): 0.314
- relative viability (NCI-H1666; first compound 0.1265 µM): 0.526
- relative viability (NCI-H1666; first compound 0.4 µM): 0.414
- relative viability (NCI-H1666; first compound 1.265 µM): 0.274
- relative viability (NCI-H1666; first compound 4 µM): 0.288
- relative viability (NCI-H441; first compound 0.04 µM): 0.475
- relative viability (NCI-H441; first compound 0.1265 µM): 0.561
- relative viability (NCI-H441; first compound 0.4 µM): 0.38
- relative viability (NCI-H441; first compound 1.265 µM): 0.234
- relative viability (NCI-H441; first compound 4 µM): 0.195
- relative viability (NCI-H1755; first compound 0.04 µM): 0.404
- relative viability (NCI-H1755; first compound 0.1265 µM): 0.419
- relative viability (NCI-H1755; first compound 0.4 µM): 0.421
- relative viability (NCI-H1755; first compound 1.265 µM): 0.208
- relative viability (NCI-H1755; first compound 4 µM): 0.185
- relative viability (NCI-H1734; first compound 0.04 µM): 0.466
- relative viability (NCI-H1734; first compound 0.1265 µM): 0.444
- relative viability (NCI-H1734; first compound 0.4 µM): 0.503
- relative viability (NCI-H1734; first compound 1.265 µM): 0.296
- relative viability (NCI-H1734; first compound 4 µM): 0.327
- relative viability (ChaGo-K-1; first compound 0.04 µM): 0.752
- relative viability (ChaGo-K-1; first compound 0.4 µM): 0.658
- relative viability (ChaGo-K-1; first compound 1.265 µM): 0.407
- relative viability (ChaGo-K-1; first compound 4 µM): 0.43
- relative viability (LK-2; first compound 0.04 µM): 0.514
- relative viability (LK-2; first compound 0.1265 µM): 0.511
- relative viability (LK-2; first compound 0.4 µM): 0.35
- relative viability (LK-2; first compound 1.265 µM): 0.223
- relative viability (LK-2; first compound 4 µM): 0.226
